The test system of one data set is Alternaria solani. The data set can be described thus: Example M: in vivo test on Alternaria solani (leaf blotch disease/tomato/protective). The note with it: 168 h, tomato, protective, 500 ppm active substance, assessed 7 days after inoculation, read-out: % Wirkungsgrad (activity level). A digest of the protocol: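 Alternaria solani infection on tomato scored 7 days post-inoculation. Before inoculation, young plants received a protective spray at the stated application dose; formulation was compound mixed with N,N-dimethylformamide and emulsifier, water-diluted.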

Data set [1] concerns Sphaerotheca fuliginea. The data set is described as follows: Example L: in vivo test on Sphaerotheca fuliginea (powdery mildew on cucumber/protective). Particulars: Podosphaera fuliginea, 168 h, cucumber, protective, assessment 7 days after inoculation, read-out: % Wirkungsgrad. In short, it runs like this: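 Young cucumber plants sprayed at stated dosage with compound in DMF/alkylaryl polyglycol ether emulsifier diluted in water; inoculated with S. fuliginea spores one day later. Kept in greenhouse at 70% relative humidity, 23° C; protective activity assessed 7 days after inoculation.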

For another data set, the system named is Fusarium proliferatum. The data set is described as follows: Example I: production of fumonisin FB1 by Fusarium proliferatum (microtitre plates). The class given is cell-based. The note with it: 120 h.
Data set [2] deals with Sphaerotheca fuliginea. The data set is described as follows: Example D: in vivo test on Sphaerotheca fuliginea (powdery mildew on cucumber). The note with it: Podosphaera fuliginea, 288 h, cucumber plants sprayed 24 hours before inoculation, scored after 12 days, read-out: % Wirkungsgrad. The protocol:
In Vivo Test on Sphaerotheca Fuliginea (Powdery Mildew on Cucumber) An aqueous suspension of the active substance was prepared by homogenization of a mixture of acetone/Tween/dimethyl sulphoxide and subsequent dilution with water to the desired concentration. Cucumber plants (variety: Vert petit de Paris) are sown in cultivation dishes on a peat-pozzolanic earth substrate (50/50) at 20/23° C. and at the cotyledon stage Z10 sprayed with the aqueous suspension described above. As a control, plants are sprayed with an aqueous solution with no active substance. After 24 hours the plants are inoculated by spraying with an aqueous suspension of Sphaerotheca fuliginea spores (100,000 spores per ml). The spores are derived from a contaminated plant. The inoculated cucumber plants are incubated at ca. 20/25° C. at a relative atmospheric humidity of 60/70%. After 12 days they are scored in comparison with the control plants.

A further data set deals with Fusarium graminearum. The data set is described as follows: microbe, parasite or virus in culture. The class given is cell-based.
The test system of another data set is Botrytis cinerea. The data set is described as follows: Example P: in vivo test on Botrytis cinerea (gray mould on bean/protective). Particulars: 48 h, bean, protective, 250 ppm active substance, assessed 2 days after inoculation, read-out: % Wirkungsgrad (activity level). The protocol: Emulsifier: 1 part by weight alkylaryl polyglycol ethers For the preparation of a suitable active substance preparation, 1 part by weight of active substance is mixed with the stated quantities of solvent and emulsifier and the concentrate is diluted to the desired concentration with water. For the testing for protective activity, young plants are sprayed with the active substance preparation at the stated application dosage. After drying of the spray coating, 2 small pieces of agar with Botrytis cinerea growing on them are laid on every leaf. […] 2 days after the inoculation, the size of the infection blotches on the leaves is assessed.

The subject of the next data set is Venturia inaequalis. The data set can be described thus: Example O: in vivo test on Venturia inaequalis (apple scab/protective). Particulars: 240 h, protective, assessment 10 days after inoculation, read-out: % Wirkungsgrad. As to the method:
Emulsifier: 1 part by weight alkylaryl polyglycol ethers For the preparation of a suitable active substance preparation, 1 part by weight of active substance is mixed with the stated quantities of solvent and emulsifier and the concentrate is diluted to the desired concentration with water. For the testing for protective activity, young plants are sprayed with the active substance preparation at the stated application dosage. […] 10 days after the inoculation, the assessment takes place.

The mark [3] stands for this setting: LogPA (logP of the stated pure compound or, in a mixture, of the main isomer, 1-substituted 3-aryl-1H-pyrazole).
The mark [4] stands for this setting: Fusarium proliferatum growth, OD 620, 5 days, read-out: % Inhibition des Pilzwachstums bei 50 μM.
Setting [5] is: Fusarium proliferatum, 5 days at 20° C., HPLC-MS/MS, read-out: % Inhibition der FB1 produktion bei 50 μM.
The mark [6] stands for this setting: 72 h, read-out: % Inhibition des Pilzwachstums bei 50 μM.
[7] abbreviates: 168 h, read-out: % Inhibition der DON/AcDON produktion bei 50 μM.

Read-outs that look alike come from different tables or passages of the source.

As usually defined, the chromatographic logP is a lipophilicity value derived from retention on a column. Consider `Fc1ccc(-c2nn(C3CCCCO3)cc2-c2ccncc2)cc1` (stereo not shown) [Compound 9], for which the chromatographic logP in “physchem” (setting [3]) came out at 1.29. Moreover, the pest or weed control at 500 ppm was found to be 89% with Alternaria solani, 90% in the data set with Sphaerotheca fuliginea [1] and 75% with Sphaerotheca fuliginea [2]. Moreover, the inhibition at 50 µM in the data set with Fusarium proliferatum (setting [4]) was found to be 40%; in the data set on Fusarium proliferatum (setting [5]), 96%.

On to `CC(C)(C)Cn1cc(-c2ccncc2)c(-c2c(F)cccc2F)n1` [Compound 11], for which, in “physchem” (setting [3]), the chromatographic logP amounted to 1.84. Also, the pest or weed control at 500 ppm is 80% in the data set with Alternaria solani, 73% with Sphaerotheca fuliginea [1] and 93% with Sphaerotheca fuliginea [2].

For the molecule `Cc1cc(F)ccc1-c1c(-c2ccncc2)cnn1C1CCCCO1` (stereo not shown) [Compound 37], in “physchem” (setting [3]), the chromatographic logP was 1.4. Further, the inhibition at 50 µM in the data set on Fusarium graminearum (setting [6]) turned out to be 13%; in the data set with Fusarium graminearum (setting [7]), 80%. The pest or weed control at 500 ppm in the data set on Sphaerotheca fuliginea [2] is 78%.

On to `COC(=O)C(C)n1cc(-c2ccncc2)c(-c2ccc(F)cc2)n1` (stereo not shown) [Compound 107], for which, in the data set “physchem” (setting [3]), the chromatographic logP turned out to be 1.2. In addition, in the data set on Sphaerotheca fuliginea [2], the pest or weed control at 500 ppm amounted to 91%.

Take `Fc1ccc(-c2nn(Cc3cnc(Cl)s3)cc2-c2ccncc2)cc1` [Compound 110]: in the data set “physchem” (setting [3]), the chromatographic logP came to 1.54. Besides, the pest or weed control at 500 ppm in the data set with Sphaerotheca fuliginea [2] is 79%.

For the molecule `Fc1ccc(-c2nn(Cc3cccc(Oc4ccccc4)c3)cc2-c2ccncc2)cc1` [Compound 138], the chromatographic logP in the data set “physchem” (setting [3]) worked out at 2.36. Also, the pest or weed control at 500 ppm with Sphaerotheca fuliginea [2] was found to be 77%.

For `CC(C)n1cc(-c2ccnc(NC(=O)C3CCC3)c2)c(-c2ccc(F)cc2)n1` [Compound 156], the chromatographic logP in the data set “physchem” (setting [3]) came to 2.57. The pest or weed control at 500 ppm with Alternaria solani and with Sphaerotheca fuliginea [1] was 94% throughout. Further, the pest or weed control at 250 ppm in the data set on Botrytis cinerea was determined as 98%. For the same molecule, the inhibition at 50 µM was 99% in the data set with Fusarium graminearum (setting [6]), 81% in the data set on Fusarium graminearum (setting [7]), 93% in the data set with Fusarium proliferatum (setting [4]) and 100% in the data set with Fusarium proliferatum (setting [5]). In addition, the pest or weed control at 100 ppm in the data set with Venturia inaequalis is 91%.

In the case of `CCC(C)n1cc(-c2ccnc(NC(=O)COC)c2)c(-c2ccc(F)cc2)n1` (stereo not shown) [Compound 162], the chromatographic logP in “physchem” (setting [3]) is 2.95. Also, the pest or weed control at 500 ppm stood at 94% in the data set with Alternaria solani and 99% in the data set on Sphaerotheca fuliginea [1]. Further, the pest or weed control at 250 ppm in the data set on Botrytis cinerea came to 100%. For the same molecule, the inhibition at 50 µM in the data set on Fusarium graminearum (setting [6]) and in the data set on Fusarium graminearum (setting [7]) was 99% throughout. For the same molecule, in the data set on Venturia inaequalis, the pest or weed control at 100 ppm is 96%.

Molecule `CC(C)Cn1cc(-c2ccnc(NC(=O)C(C)C)n2)c(-c2ccc(F)cc2)n1` [Compound 189] registered a chromatographic logP in the data set “physchem” (LogPA) of 2.92. The pest or weed control at 500 ppm in the data set on Alternaria solani is 95%. Besides, in the data set on Botrytis cinerea, the pest or weed control at 250 ppm is 93%. The pest or weed control at 100 ppm in the data set with Venturia inaequalis turned out to be 84%. The inhibition at 50 µM in the data set with Fusarium proliferatum (setting [4]) stood at 0%; with Fusarium proliferatum (setting [5]), 90%.

`CC(C)n1cc(-c2ccnc(NC(=O)c3cccs3)c2)c(-c2ccc(F)cc2)n1` [Compound 206] registered a chromatographic logP in “physchem” (LogPA) of 3.14. Moreover, the pest or weed control at 500 ppm in the data set with Alternaria solani amounted to 90%; with Sphaerotheca fuliginea [1], 94%. Also, the pest or weed control at 250 ppm in the data set with Botrytis cinerea was determined as 100%. The inhibition at 50 µM in the data set on Fusarium graminearum (setting [6]) is 75%; in the data set with Fusarium graminearum (setting [7]), 99%. In the data set on Venturia inaequalis, the pest or weed control at 100 ppm is 83%.

On to `COCCOCC(=O)Nc1cc(-c2cn(C(C)C)nc2-c2ccc(F)cc2)ccn1` [Compound 208], for which, in the data set “physchem” (LogPA), the chromatographic logP was determined as 2.62. For the same molecule, the pest or weed control at 500 ppm turned out to be 80% in the data set on Alternaria solani and 100% in the data set on Sphaerotheca fuliginea [1]. The pest or weed control at 250 ppm in the data set with Botrytis cinerea was found to be 100%. The inhibition at 50 µM in the data set with Fusarium graminearum (setting [6]) was 101%; in the data set on Fusarium graminearum (setting [7]) it was 100%. For the same molecule, the pest or weed control at 100 ppm in the data set with Venturia inaequalis is 78%.

Consider `CC(C)n1cc(-c2ccnc(NC(=O)C(O)CO)c2)c(-c2ccc(F)cc2)n1` (stereo not shown) [Compound 210], for which, in the data set “physchem” (LogPA), the chromatographic logP turned out to be 1.76. The pest or weed control at 500 ppm in the data set with Alternaria solani was determined as 80%; in the data set on Sphaerotheca fuliginea [1], 100%. Moreover, the pest or weed control at 250 ppm in the data set on Botrytis cinerea was found to be 98%. In addition, the values for the inhibition at 50 µM in the data set with Fusarium graminearum (setting [6]) and in the data set on Fusarium graminearum (setting [7]) were 85% and 100%, respectively. For the same molecule, in the data set with Venturia inaequalis, the pest or weed control at 100 ppm was found to be 78%.

Molecule `CCNC(=O)Nc1cc(-c2cn(C(C)C)nc2-c2ccc(F)cc2)ccn1` [Compound 211] gave a chromatographic logP in the data set “physchem” (LogPA) of 2.02. The pest or weed control at 500 ppm in the data set on Alternaria solani was 70%; in the data set with Sphaerotheca fuliginea [1] it was 93%. In the data set on Botrytis cinerea, the pest or weed control at 250 ppm was 100%. Besides, the inhibition at 50 µM came out at 16% in the data set on Fusarium graminearum (setting [6]) and 99% in the data set with Fusarium graminearum (setting [7]). For the same molecule, the pest or weed control at 100 ppm in the data set with Venturia inaequalis worked out at 92%.

`COCC(=O)Nc1cc(-c2cn(CCCl)nc2-c2ccc(F)cc2)ccn1` [Compound 220]: the chromatographic logP in “physchem” (LogPA) came to 2.36. Moreover, the figures for the pest or weed control at 500 ppm with Alternaria solani and in the data set on Sphaerotheca fuliginea [1] were 95% and 97%, respectively. The pest or weed control at 250 ppm in the data set on Botrytis cinerea stood at 100%. In addition, the inhibition at 50 µM was found to be 100% in the data set on Fusarium graminearum (setting [6]), 99% in the data set with Fusarium graminearum (setting [7]), 99% in the data set on Fusarium proliferatum (setting [4]) and 100% with Fusarium proliferatum (setting [5]). Besides, in the data set on Venturia inaequalis, the pest or weed control at 100 ppm was determined as 96%.

Molecule `CC(C)C(=O)Nc1cc(-c2cn(CCCl)nc2-c2ccc(F)cc2)ccn1` [Compound 222] yielded a chromatographic logP in “physchem” (LogPA) of 2.33. In addition, the pest or weed control at 500 ppm in the data set with Alternaria solani was determined as 90%; with Sphaerotheca fuliginea [1], 100%. Besides, the pest or weed control at 250 ppm in the data set with Botrytis cinerea is 85%. Besides, the inhibition at 50 µM with Fusarium graminearum (setting [6]) was 99%; in the data set with Fusarium graminearum (setting [7]), 82%; with Fusarium proliferatum (setting [4]) it was 96%; with Fusarium proliferatum (setting [5]) it was 100%. In the data set on Venturia inaequalis, the pest or weed control at 100 ppm was 95%.

`CCOC(=O)Nc1cc(-c2cn(C(C)CC)nc2-c2ccc(F)cc2)ccn1` (stereo not shown) [Compound 268]: in “physchem” (LogPA), the chromatographic logP was determined as 3.08. The results for the pest or weed control at 500 ppm in the data set on Alternaria solani and with Sphaerotheca fuliginea [1] were 80% and 100%, respectively. The pest or weed control at 250 ppm in the data set with Botrytis cinerea is 100%. The values for the inhibition at 50 µM in the data set on Fusarium graminearum (setting [6]) and in the data set on Fusarium graminearum (setting [7]) were 32% and 90%, respectively. The pest or weed control at 100 ppm in the data set with Venturia inaequalis was 98%.

For the molecule `CC(C)On1cc(-c2ccnc(NC(=O)C3CC3)c2)c(-c2ccc(F)cc2)n1` [Compound 271], the chromatographic logP in “physchem” (LogPA) turned out to be 2.73. Further, the pest or weed control at 500 ppm in the data set with Alternaria solani worked out at 89%; in the data set on Sphaerotheca fuliginea [1], 79%. In addition, in the data set with Botrytis cinerea, the pest or weed control at 250 ppm came out at 93%. Also, the inhibition at 50 µM is 71% in the data set with Fusarium graminearum (setting [6]) and 99% in the data set with Fusarium graminearum (setting [7]). The pest or weed control at 100 ppm in the data set on Venturia inaequalis is 81%.

`CC(C)On1cc(-c2ccnc(NC(=O)C(C)C)c2)c(-c2ccc(F)cc2)n1` [Compound 272] registered a chromatographic logP in the data set “physchem” (LogPA) of 3.01. In addition, the pest or weed control at 500 ppm in the data set on Alternaria solani and in the data set with Sphaerotheca fuliginea [1] was 94% throughout. In addition, the pest or weed control at 250 ppm in the data set on Botrytis cinerea worked out at 100%. Besides, the inhibition at 50 µM in the data set with Fusarium graminearum (setting [6]) was determined as 33%; in the data set on Fusarium graminearum (setting [7]), 99%. Further, the pest or weed control at 100 ppm in the data set with Venturia inaequalis is 89%.

The values above are taken from patent US20110183978A1, “Phenylpyri(mi)dinylazoles” (Bayer CropScience AG, priority 2009, published 2011).
